Test results as given in paper PMC7955776 (Investigational new drugs, 2020).
Values joined by “and” are separate entries in the source; they are usually repeats but may differ in a detail not shown here. Identical values can stand only once. Marks after values point to notes of the source that are not given here.

What was measured:
Format in all cases: in vivo, human
[1] = Safety: adverse events graded by CTCAE v4.0; details: with paclitaxel and carboplatin
[2] = RO4929097 plasma pharmacokinetics; details: for AUC(0-inf) / Cmax / half-life / Vd/F: human, plasma, oral; for Vd/F: Vz/F
stage II-III TNBC = assay: Clinico-pathological response to neoadjuvant treatment
[3] = ECG monitoring during cycle 1; details: 10 patients, cycle 1, before and after dosing on days 1 and 17
[4] = 20 mg dose, Cycle 1 Day 15, N = 3, mean ± SD
[5] = 10 mg, 10 mg dose, Cycle 1 Day 1, N = 8, mean ± SD
[6] = 10 mg, 10 mg dose, Cycle 1 Day 15, N = 7, mean ± SD
[7] = 10 mg, 10 mg dose, Cycle 1 Day 17, N = 6, mean ± SD
[8] = 20 mg, 20 mg dose, Cycle 1 Day 1, N = 4, mean ± SD
[9] = 20 mg, 20 mg dose, Cycle 1 Day 15, N = 3, mean ± SD
[10] = 20 mg, 20 mg dose, Cycle 1 Day 17, N = 2, mean ± SD

SMILES: CC(C)(C(=O)NCC(F)(F)C(F)(F)F)C(=O)N[C@@H]1C(=O)Nc2ccccc2-c2ccccc21 [RO4929097]
- Lymphocytopenia, All Grades ([1]; treatment-related AE, N = 14): 12 (86) N (%)
- Lymphocytopenia, Grade 1 ([1]; treatment-related AE, N = 14): 5 (36) N (%)
- Lymphocytopenia, Grade 2 ([1]; treatment-related AE, N = 14): 5 (36) N (%)
- Lymphocytopenia, Grade 3 ([1]; treatment-related AE, N = 14): 2 (14) N (%)
- Lymphocytopenia, Grade 4 ([1]; treatment-related AE, N = 14): 0 (0) N (%)
- Nausea, All Grades ([1]; treatment-related AE, N = 14): 12 (86) N (%)
- Nausea, Grade 1 ([1]; treatment-related AE, N = 14): 9 (64) N (%)
- Nausea, Grade 2 ([1]; treatment-related AE, N = 14): 3 (21) N (%)
- Nausea, Grade 3 ([1]; treatment-related AE, N = 14): 0 (0) N (%)
- Nausea, Grade 4 ([1]; treatment-related AE, N = 14): 0 (0) N (%)
- Neutropenia, All Grades ([1]; treatment-related AE, N = 14): 11 (79) N (%)
- Neutropenia, Grade 1 ([1]; treatment-related AE, N = 14): 0 (0) N (%)
- Neutropenia, Grade 2 ([1]; treatment-related AE, N = 14): 3 (21) N (%)
- Neutropenia, Grade 3 ([1]; treatment-related AE, N = 14): 6 (43%) N (%) and 6 (43) N (%)
- Neutropenia, Grade 4 ([1]; treatment-related AE, N = 14): 2 (14%) N (%) and 2 (14) N (%)
- Peripheral sensory neuropathy, All Grades ([1]; treatment-related AE, N = 14): 12 (86) N (%)
- Peripheral sensory neuropathy, Grade 1 ([1]; treatment-related AE, N = 14): 6 (43) N (%)
- Peripheral sensory neuropathy, Grade 2 ([1]; treatment-related AE, N = 14): 4 (29) N (%)
- Peripheral sensory neuropathy, Grade 3 ([1]; treatment-related AE, N = 14): 2 (14%) N (%) and 2 (14) N (%)
- Peripheral sensory neuropathy, Grade 4 ([1]; treatment-related AE, N = 14): 0 (0) N (%)
- Rash maculo-papular, All Grades ([1]; treatment-related AE, N = 14): 10 (71) N (%)
- Rash maculo-papular, Grade 1 ([1]; treatment-related AE, N = 14): 7 (50) N (%)
- Rash maculo-papular, Grade 2 ([1]; treatment-related AE, N = 14): 3 (21) N (%)
- Rash maculo-papular, Grade 3 ([1]; treatment-related AE, N = 14): 0 (0) N (%)
- Rash maculo-papular, Grade 4 ([1]; treatment-related AE, N = 14): 0 (0) N (%)
- Thrombocytopenia, All Grades ([1]; treatment-related AE, N = 14): 11 (79) N (%)
- Thrombocytopenia, Grade 1 ([1]; treatment-related AE, N = 14): 4 (29) N (%)
- Thrombocytopenia, Grade 2 ([1]; treatment-related AE, N = 14): 2 (14) N (%)
- Thrombocytopenia, Grade 3 ([1]; treatment-related AE, N = 14): 4 (29%) N (%) and 4 (29) N (%)
- Thrombocytopenia, Grade 4 ([1]; treatment-related AE, N = 14): 1 (7%) N (%) and 1 (7) N (%)
- Hospitalizations for neutropenic fevers or other treatment-related toxicities [1]: no hospitalizations
- G3 or higher thrombocytopenia, patients ([1]; N = 5): 36%
- G3 or higher neutropenia, patients ([1]; N = 8): 57%
- Patients with Grade 2/Grade 3 neuropathy requiring dose reduction of paclitaxel ([1]; six patients): 43%
- CL/F ([2]; 10 mg dose, Cycle 1 Day 1, N = 8, mean ± SD): 3.21 ± 0.84 L/h
- CL/F ([2]; 10 mg dose, Cycle 1 Day 15, N = 7, mean ± SD): 2.70 ± 1.07 L/h
- CL/F ([2]; 10 mg dose, Cycle 1 Day 17, N = 6, mean ± SD): 1.97 ± 1.12 L/h
- CL/F ([2]; 20 mg dose, Cycle 1 Day 1, N = 4, mean ± SD): 3.87 ± 1.09 L/h
- CL/F [2, 4]: 3.90 ± 2.20 L/h
- Half life [2, 4]: 36.0 ± 31.7 h
- CL/F ([2]; 20 mg dose, Cycle 1 Day 17, N = 2, mean ± SD): 2.47 ± 2.55 L/h
- Exposure on day 15 compared to day 1 ([2]; cycle 1): 125%
- AUC (exposure) on day 17 compared to day 1 ([2]; cycle 1, both dose levels): 220%
- Cmax on day 17 compared to day 1 ([2]; cycle 1, both dose levels): 158%
- AUC(0-inf) [2, 5]: 3280 ± 749 ng·h/mL
- AUC(0-inf) [2, 6]: 4120 ± 2140 ng·h/mL
- AUC(0-inf) [2, 7]: 6210 ± 2610 ng·h/mL
- Cmax [2, 5]: 203 ± 92.7 ng/mL
- Cmax [2, 6]: 177 ± 93.6 ng/mL
- Cmax [2, 7]: 259 ± 113 ng/mL
- half-life [2, 5]: 14.7 ± 2.2 h
- half-life [2, 6]: 20.1 ± 11.2 h
- half-life [2, 7]: 20.6 ± 7 h
- Vd/F [2, 6]: 76.8 ± 46.8 L
- Vd/F [2, 7]: 55.6 ± 25.4 L
- AUC(0-inf) [2, 8]: 5520 ± 1680 ng·h/mL
- AUC(0-inf) [2, 9]: 6730 ± 4230 ng·h/mL
- AUC(0-inf) [2, 10]: 17400 ng·h/mL
- Cmax [2, 8]: 324 ± 116 ng/mL
- Cmax [2, 9]: 234 ± 25 ng/mL
- Cmax [2, 10]: 422 ± 42.6 ng/mL
- half-life [2, 8]: 22.8 ± 12.4 h
- half-life [2, 10]: 39.3 ± 39.9 h
- Vd/F [2, 8]: 115 ± 38.6 L
- Vd/F [2, 9]: 139 ± 37.5 L
- Vd/F [2, 10]: 66.3 ± 2.4 L
- pCR, patients (stage II-III TNBC; 5 of 14 patients, with paclitaxel and carboplatin): 36%
- Patients with residual disease in the breast and lymph nodes (stage II-III TNBC; 5 patients, with paclitaxel and carboplatin): 36%
- Overall response rate (stage II-III TNBC; 9 of 14 patients who completed chemotherapy (1 never received RO4929097)): 64%
- Complete pathologic response (stage II-III TNBC; neoadjuvant, with paclitaxel and carboplatin, N = 14): 5 (36) N (%)
- Residual disease (stage II-III TNBC; neoadjuvant, with paclitaxel and carboplatin, N = 14, one patient did not receive RO4929097): 9 (64)^a,b N (%)
- QTc prolongation or other clinically significant ECG changes [3]: No QTc prolongation or other clinically significant ECG changes were observed
